Entries after “also recorded” stand apart in the source; their conditions may differ.

One experiment has as its system hESC line H1. Description: erythroid differentiation culture of hESC line H1. The experiment is classed as cell-based, human. The note with it: H1 ESC differentiation. As to the method:
(§1) The human pluripotent stem cells (hPSC) are maintained undifferentiated in Stempro medium (Life Technologies) on Cellstart (Life Technologies) and passaged approximately every 7 days, depending on their confluence, using the EZpassage tool (Life Technologies).
(§2) For differentiation, confluent hPSC are cut into squares with the EZpassage tool (Life Technologies) and plated at 500×10^3/well on Ultra low adherence six well plates (Corning) in 3 ml/well of Stemline II (Sigma) to allow them to form embryoid bodies (EBs).
(§3) On day 0 in order to induce differentiation, the following cytokines are added: Bone Morphogenic Protein 4 (BMP4) (10 ng/ml), Vascular Endothelium Growth Factor 165 (VEGF) (10 ng/ml), Wnt3A (and/or Wnt5A) (10 ng/ml), ActivinA (5 ng/ml) and Inhibitor VIII (2 μM). GSK3 Inhibitor VIII is a specific name for the Merck product (361549), it is also called AR-A014418 or N-(4-Methoxybenzyl)-N′-(5-nitro-1,3-thiazol-2-yl)urea […]
(§4) From day 7 to day 10 of differentiation the cell density should be closely monitored in order to maintain the cell number under 10^6 per ml by adding fully supplemented media and splitting into additional wells if required. […]

Another experiment relates to RC9. Description: erythroid differentiation culture of hESC line RC9. The note with it: RC9 cell line. The experiment is classed as cell-based, human. The protocol:
as §1, §2, §3, §4

Experiment [1] concerns genes involved in erythropoiesis. Description: qRT-PCR (Taqman) of genes involved in erythropoiesis in differentiating hPSCs. In kind it is cell-based, human. As to conditions: for expression of globin genes and other markers of definitive hematopoiesis (HBA, HBG, HBB, Runx1, Gata2, HoxB4) and erythropoiesis genes (HOXA9, CD36, NFE2) / necessary reduction in pluripotent markers: hiPSC or hESC, Inhibitor VIII and IBMX; for key molecular markers, mRNA expression: iPSC, InhVIII+IBMX, day 0, 10, 17 and 24. The source says: At days 0, 10, 17 and 24 the expression of selected genes of interest by the differentiating cells was monitored by qRT-PCR (Taqman) The gene panel was selected to comprise genes known to be expressed at various stages of erythropoiesis in order to evaluate the degree of differentiation of the hPSCs.
Background: Real-time PCR tracks product formation cycle by cycle.

The subject of experiment [2] is human pluripotent stem cells (hPSC). Description: erythroid differentiation culture of hPSCs, overall cell amplification. In kind it is cell-based. The note with it: for cell amplification, combination of GSK3β inhibitor and IBMX: GSK3 inhibitor combined with IBMX; for quality and quantity of erythrocytic cells produced: GSK3β inhibitor day 0 to day 3, used along with Wnt3a; for overall amplification of differentiating erythropoietic cultures, side by side comparison: Table 1, addition of GSK3β inhibitors, IBMX or both; for replacement of recombinant Wnt3A by GSK3β inhibitor: added during day 0 to day 3 of the differentiation protocol; for potency: concentration of GSK3β inhibitor: early stage of differentiation; for expansion in cell number / yield of differentiated cells: prolonged treatment d0 to d5, iPSC or hESC; for rate of cell amplification in the late stage of the method: SR1 1 μM at day 5, SC1 500 nM at day 14 and 250 nM at day 16. As to the method: as §1, §2
(§5) On day 0 in order to induce differentiation, the following cytokines are added: Bone Morphogenic Protein 4 (BMP4) (10 ng/ml), Vascular Endothelium Growth Factor 165 (VEGF) (10 ng/ml), Wnt3A (and/or Wnt5A) (10 ng/ml), ActivinA (5 ng/ml) and Inhibitor VIII (2 μM). GSK3 Inhibitor VIII is a specific name for the Merck product (361549), it is also called AR-A014418 or N-(4-Methoxybenzyl)-N′-(5-nitro-1,3-thiazol-2-yl)urea
(§6) On day 2 of differentiation (48 hours old EBs), a new set of cytokines is added in 0.5 ml/well of Stemline II; BMP4 (20 ng/ml), VEGF (30 ng/ml), Wnt3A (and/or Wnt5A) (10 ng/ml), ActivinA (5 ng/ml), Inhibitor VIII (2 μM), Fibroblast Growth Factor α (FGFα) (10 ng/ml), Stem Cell Factor (SCF) (20 ng/ml) and β-Estradiol (0.4 ng/ml).
(§7) NB: Given cytokine concentrations are always the final concentrations of freshly added cytokines—e.g. when cells are fed rather than undergoing complete media change, we add 0.5 ml of 6× cytokines to 2.5 ml already in well to give final total volume of 3 ml with 1× cytokines.
On day 3 of differentiation the EBs are washed in PBS then dissociated using 1 ml/well TrypleSelect 10λ for 10 minutes at 37° C. After addition of 10 ml of PBS, cells are centrifuged for 3 minutes at 1200 rpm, the supernatant is discarded and the cells are resuspended in 3 ml fresh Stemline II and replated at 200×10^3/well of a regular six well tissue culture plate with the following cytokines: BMP4 (20 ng/ml), VEGF (30 ng/ml), FGFα (10 ng/ml), SCF (30 ng/ml), Insulin-like Growth Factor 2 (IGF2) (10 ng/ml), Thrombopoietin (TPO) (10 ng/ml), Heparin (5 ug/ml), Iso Butyl Methyl Xanthine (IBMX) 50 μM and β-Estradiol (0.4 ng/ml).
On day 5 of differentiation a fresh set of cytokines identical to day 3 is added in 0.5 ml/well of Stemline II such that final concentrations of fresh cytokines are those stated for day 3.
On day 7 of differentiation the cells are harvested, centrifuged 3 minutes at 1200 rpm and resuspended in fresh Stemline II medium supplemented with the same set of cytokines as day 3. If the number of cells is above 500×10^3, it is advisable to split the culture as any drastic depletion or major pH increase of the medium can have major repercussion on the differentiation efficiency.
From day 7 to day 10 of differentiation the cell density should be closely monitored in order to maintain the cell number under 10^6 per ml by adding fully supplemented media and splitting into additional wells if required.
On day 9 of differentiation a half dose of day 3 cytokines is added in 0.5 ml/well of Stemline II such that final concentrations of fresh cytokines are half those stated for day 3.
On day 10 of differentiation, the cells are centrifuged 3 minutes at 1200 rpm then re-plated in erythroid liquid culture conditions. i.e. the cells are plated at a density of 100×10^3 cells/well in 3 ml/well of Stemline II supplemented with the following cytokines: Hydrocortisone 10^−6M, SCF (50 ng/ml), Flt3-Ligand (Flt3L) (16.7 ng/ml), BMP4 (6.7 ng/ml), Interleukin 3 (IL3) (6.7 ng/ml), IL11 (6.7 ng/ml), IBMX (50 μM) and Erythropoietin (EPO) 1.3 U/ml.
From day 10 to day 17 (short protocol) or 21 (extended A phase protocol), the above cytokines are renewed every 2 days, added in 0.5 ml of Stemline II, such that final concentrations of fresh cytokines are those stated for day 10. […]

The test system of another experiment is iPSC. Description: erythroid differentiation culture of iPSC. The experiment is classed as cell-based, human. The protocol:
as §1, §2, §5, §6, §7
On day 3 of differentiation the EBs are washed in PBS then dissociated using 1 ml/well TrypleSelect 10λ for 10 minutes at 37° C. […]
as §4

The test system of the next experiment is differentiating hPSCs. Description: morphology of differentiating cells, Rapid Romanovski staining of cytospin preparations. In kind it is cell-based, human. The note with it: for sturdiness of cells, proneness to lysis: SR1 at day 5, SC1 at days 14 and 16. As to the method: At day 17 onward, the erythroid stage of the cells was determined assessment of morphology after Rapid Romanovski staining of cytospin preparations.

In the next experiment the test system is globins. Description: HPLC analysis of globin protein expression profile of differentiated hPSCs. The experiment is classed as cell-based, human. As to conditions: full differentiation process in presence of both GSK3β inhibitor and IBMX. The protocol: At day 24, 28 or onward the globin protein expression profile was analysed by High Pressure Liquid Chromatography to evaluate the level of switch from primitive to definitive hematopoiesis.

In the case of `COc1ccc(CNC(=O)Nc2ncc([N+](=O)[O-])s2)cc1` [Inhibitor VIII, N-(4-methoxybenzyl)-N′-(5-nitro-1,3-thiazol-2-yl)urea], the “replacement of Activin A” value in the experiment on hESC line H1 was “can replace Activin A”. Besides, the “replacement of Activin A” value in the experiment on RC9 is “wasn't observed”. Moreover, in experiment [1], the “expression of globin genes and other markers of definitive hematopoiesis (HBA, HBG, HBB, Runx1, Gata2, HoxB4) and erythropoiesis genes (HOXA9, CD36, NFE2)” value is “increase expression”; the “necessary reduction in pluripotent markers” value is “do not affect”; the “key molecular markers, mRNA expression” value was “Increase key molecular markers”. Besides, in experiment [2], the “cell amplification, combination of GSK3β inhibitor and IBMX” value is reported as “synergistic”; the “quality and quantity of erythrocytic cells produced” value is listed as “marked improvement”; the “overall amplification of differentiating erythropoietic cultures, side by side comparison” value was “inconsistency. Results consistently show a positive effect of Inhibitor VIII and IBMX. The gain provided by a prolonged”; the “replacement of recombinant Wnt3A by GSK3β inhibitor” value is given as “could not reproducibly replace Wnt3a”. In experiment [2], the “potency: concentration of GSK3β inhibitor” value is 2 µM and the “expansion in cell number / yield of differentiated cells” value was “increases the yield of differentiated cells”. Also, the “total fold amplification of erythroid differentiation culture” value in experiment [2] (absence or presence of inhibitor VIII, hESC lines RC9 and H1, iPS line) is recorded as “increases cell numbers in multiple lines”. In addition, in experiment [2] (listed as InhVIII), the “expansion in cell number / yield of differentiated cells” value is “increases the expansion in cell number”. The “replacement of Activin A” value in the experiment on iPSC (iPSC G cell line) is “wasn't observed”.

On to `CC(C)Cn1c(=O)n(C)c(=O)c2[nH]cnc21` [IBMX, 3-isobutyl-1-methylxanthine], for which the “cells morphology and maturation” value with differentiating hPSCs (addition of IBMX and GSK3β inhibitors, compared to the control culture conditions) is on record as “did not have any negative effect”. In the experiment with differentiating hPSCs (combination of GSK3β inhibitor and IBMX), the “morphological appearance of cells” value was “morphologically more intact and robust”. For the same molecule, in experiment [1], the “expression of globin genes and other markers of definitive hematopoiesis (HBA, HBG, HBB, Runx1, Gata2, HoxB4) and erythropoiesis genes (HOXA9, CD36, NFE2)” value is on record as “increase expression”; the “necessary reduction in pluripotent markers” value is “do not affect”; the “key molecular markers, mRNA expression” value is listed as “Increase key molecular markers”. Also, the HPLC globin profile result in the experiment with globins was “almost similar to the cells of fetal origin”. Also, in experiment [2], the “cell amplification, combination of GSK3β inhibitor and IBMX” value is listed as “synergetic effect on cell amplification”; the “overall amplification of differentiating erythropoietic cultures, side by side comparison” value is “inconsistency. Results consistently show a positive effect of Inhibitor VIII and IBMX. The gain provided by a prolonged”. Moreover, the “expansion, cumulative fold amplification over time” value in experiment [2] (H1 (hESC) or hiPSC, combinations of GSK3β inhibitors and IBMX) was “further increases expansion”. Further, the “cell numbers in the culture” value in experiment [2] (IBMX added to culture) was “can increase cell numbers”. In addition, the “stage of addition inducing maximum amplification” value in experiment [2] (added to culture medium throughout day 3 and 17) is “most effective”.

Consider `Cc1c[nH]c(-c2cnc(NCCNc3ccc(C#N)cn3)nc2-c2ccc(Cl)cc2Cl)n1` [CHIR99021], for which, in experiment [2], the “cell amplification, combination of GSK3β inhibitor and IBMX” value is “synergistic”; the “quality and quantity of erythrocytic cells produced” value is given as “marked improvement”; the “replacement of recombinant Wnt3A by GSK3β inhibitor” value is on record as “could not reproducibly replace Wnt3a”; the “potency: concentration of GSK3β inhibitor” value amounted to 0.2 µM. In addition, the “effect on hESC versus hiPSC lines” value in experiment [2] (compared to Inhibitor VIII) is given as “stronger effect on hESC than hiPSC lines”.

`O=C1Nc2cc(Br)ccc2/C1=C1/Nc2ccccc2/C1=N\O` [BiO]: in experiment [2], the “cell amplification, combination of GSK3β inhibitor and IBMX” value is reported as “does not have this effect”.

As to `CC(C)n1cnc2c(NCCc3ccc(O)cc3)nc(-c3csc4ccccc34)nc21` [SR1], the “sturdiness of cells, proneness to lysis” value with differentiating hPSCs was “sturdier and less prone to lysis; also recorded: more “sturdy” and less prone to lysis”. For the same molecule, in experiment [2], the “rate of cell amplification in the late stage of the method” value is reported as “greater rate of cell amplification; also recorded: enhances or increases the rate of cell amplification”.

`Cc1cc(Nc2ncc3c(n2)N(C)C(=O)N(c2cc(NC(=O)c4cccc(C(F)(F)F)c4)ccc2C)C3)n(C)n1` [SC1]: the “sturdiness of cells, proneness to lysis” value in the experiment on differentiating hPSCs is “sturdier and less prone to lysis; also recorded: more “sturdy” and less prone lysis”. The “rate of cell amplification in the late stage of the method” value in experiment [2] is reported as “greater rate of cell amplification; also recorded: enhances or increases the rate of cell amplification”.

B1: Activin A: cytokine added at 5 ng/ml in the early stage of differentiation (protein, UniProt P08476 311-426, looked up)
Inhibin beta A chain: GLECDGKVNICCKKQFFVSFKDIGWNDWIIAPSGYHANYCEGECPSHIAGTSGSSLSFHSTVINHYRMRGHSPFANLKSCCVPTKLRPMSMLYYDDGQNIIKKDIQNMIVEECGCS
As to B1, the “differentiation efficiency in the absence of Activin A” value in the experiment with RC9 and with iPSC (iPSC G cell line) was “markedly hinders the differentiation efficiency” throughout. Besides, in experiment [2] (data not shown), the “effect of an increased dose on differentiation” value is “doesn't have any beneficial effect”. In addition, the “requirement for efficient differentiation” value in the experiment with iPSC (iPSC) is “required for efficient differentiation”.

For the origin of these results see patent US9677051B2, “Erythroid production” (The Common Services Agency, priority 2012, dated 2017).
